The structures appear in SMILES notation. Read-outs that look alike come from different tables or passages of the source.

Consider one compound from publication PMC6631119, “Nasal Administration and Plasma Pharmacokinetics of Parathyroid Hormone Peptide PTH 1-34 for the Treatment of Osteoporosis” (Pharmaceutics, 2019).

The conditions of series [1]: post-menopausal women with osteoporosis, 20 μg PTH 1-34 subcutaneous dose, reported by the manufacturers of the commercial formulation; cited from earlier work.
Series [2] in a line: Healthy human volunteer plasma pharmacokinetics of PTH 1-34 (open cross-over, ELISA). In kind it is in vivo. As to the method: An open cross-over clinical IMP (investigative medicinal product) study was conducted in seven healthy female subjects aged over 55 years (mean age 67.7, range 58 to 81 years). Each participant provided informed consent in accordance with ethical committee requirements and good clinical practice. Pre-study screening assessments were carried out within 21 days of the participants receiving their first dose (Supplementary Materials: Section S1). Inclusion and exclusion criteria were applied (Supplementary Materials: Section S2). Participants were admitted to the study centre on the morning of dosing, having abstained from alcohol and smoking for at least 24 h previously and fasted from midnight. Participants were given a light meal on arrival. A cannula was then positioned in the participant’s arm or hand to facilitate the collection of blood samples. The pre-dose sample was taken. Participants received a single subcutaneous injection of 20 μg teriparatide into the abdomen at their first trial visit. Following a seven day wash out period, each participant self-administered 90 μg PTH 1-34 from the nasal spray formulation using the Rexam SP270 nasal spray device; the patients had previously been trained in operation of the Rexam device. Any episodes of sneezing after administration of the nasal formulation were recorded. The nasal spray formulation contained Tc-99m-DTPA, 3–5 MBq per Rexam SP270 nasal spray dose, resulting in an effective radiation dose of less than 0.14 mSv to each participant.
Following either subcutaneous or intranasal dosing, 10 mL blood samples (Becton Dickinson sodium heparin) were taken at 5, 15, 30, 60 120, 180, 240, 300 and 360 min. After each sample was taken, the cannula was flushed with 10 mL 0.9% saline. Blood was stored on ice and centrifuged within 30 min to prepare plasma (4 °C, 1100–1300 g, 10 min). These samples were stored at −20 °C before dispatching to Simbec Research Ltd. (Merthyr Tydfil, UK) for quantification by validated ELISA, in compliance with The UK Good Laboratory Practice Regulations 1999 (Statutory Instrument No. 310 6) and subsequent amendment, OECD Principles of Good Laboratory Practice (Paris 1998) and EC Commission Directive 2004/10/EC of February 2004.
Pharmacokinetic data were analysed using Phoenix® WinNonlin® 5.1 (Certara USA, Inc., Princeton, NJ, USA) from quantified PTH 1-34 in the plasma, using recorded sampling times. Summary statistics (mean, median, SD, coefficient of variation [CV%], minimum, maximum, n) and the following plasma pharmacokinetic parameters were calculated: • Cmax • Tmax • Terminal half-life (t1/2) • AUC to 2 h (AUC0–2h) • AUC to last measured time point (AUClast) and corresponding Frel for nasal formulation
(In general: ELISA stands for enzyme-linked immunosorbent assay.)

The nature of series [3]: HPLC integrity of spray dried PTH 1-34. In kind it is physicochemical. Particulars: spray dried dry powder formulations during formulation development, inlet 85 °C. Here is the method: The dry powder formulation was also prepared at CPL as 1% w/w PTH (1-34) with 39% Gellan gum, 40% Solutol® HS15, 20% Trehalose. In brief, 97.5 mg Gellan gum was dissolved in 50 mL ultra-pure water overnight. Solutol® HS15 was rendered molten (60 ± 10 °C), and 100 mg was added to the Gellan gum solution and mixed for 30–45 min at 60 °C. 50 mg of trehalose was added and mixed for a further 10 min. A total 5 mg of PTH 1-34 was dissolved in 5 mL of ultra-pure water, and 2.5 mL was added to the formulation. Particles were prepared using a spray dryer Mini Spray Dryer B-290 (Buchi UK Ltd., Oldham, UK) with the inlet set at 85 °C (outlet modified by inlet temperature), the aspirator 100%, the pump set at 006 equivalent to 2 mL/ min, the spray pressure at 4 bar. Particle size of the dry powder formulation manufactured for use in the sheep was not measured, due to limited availability of material due to batch size. However, the particle size of similar formulations when prepared for loading into the delivery devices was monitored using Helos/BF (Sympatec GmbH, Clausthal-Zellerfeld, Germany) during formulation development, where the VMD was 73.7–91.8 µm (×10 = 10.6–23.7 µm, ×50 = 51.5–98.1 µm, ×90 = 142–153 µm). A total 2.4–2.8% of particles were below 10 µm. As the vast majority of particles were >10 µm, the formulations would be expected to be nasally deposited.

For series [4] the following is noted: cited from earlier work. An excerpt:
Nasal delivery of large peptides such as parathyroid 1-34 (PTH 1-34) can benefit from a permeation enhancer to promote absorption across the nasal mucosa into the bloodstream. […] We report here the plasma pharmacokinetics of PTH 1-34 in healthy human volunteers receiving the liquid nasal spray formulation containing Solutol® HS15 ... || Our previously published preclinical data in rats for a liquid nasal spray formation were encouraging, showing that the nasal systemic absorption of PTH 1-34 was increased considerably when administered in a formulation containing Solutol® HS15. […] This was not consistent with the previous data from our small animal preclinical studies. In the preceding preclinical conscious rat model, we reported the pharmacokinetic performance of an […] PTH 1-34 subcutaneous formulation, an intranasal liquid formulation with no enhancer and an intranasal solution containing Solutol® HS15. PTH 1-34 doses of 80 μg/kg by subcutaneous injection and 100 μg/kg intranasally were given to rats. T ...

The mark [5] stands for this setting: healthy female volunteers aged over 55 y, single 20 μg teriparatide subcutaneous injection into abdomen (Forsteo pen), plasma ELISA, mean of n = 7.
The mark [6] stands for this setting: conscious rat, intranasal liquid formulation without enhancer, 100 μg/kg.

By Cmax is commonly meant the maximum level reached in the sampled fluid or tissue. One may read the t½ as the time needed for the level to fall by half in the phase considered. What is called Tmax is the time from dosing to the highest level. Turning to `CC[C@H](C)[C@H](NC(=O)[C@H](CCC(=O)O)NC(=O)[C@H](CO)NC(=O)[C@@H](NC(=O)[C@@H](N)CO)C(C)C)C(=O)N[C@@H](CCC(N)=O)C(=O)N[C@@H](CC(C)C)C(=O)N[C@@H](CCSC)C(=O)N[C@@H](Cc1cnc[nH]1)C(=O)N[C@@H](CC(N)=O)C(=O)N[C@@H](CC(C)C)C(=O)NCC(=O)N[C@@H](CCCCN)C(=O)N[C@@H](Cc1cnc[nH]1)C(=O)N[C@@H](CC(C)C)C(=O)N[C@@H](CC(N)=O)C(=O)N[C@@H](CO)C(=O)N[C@@H](CCSC)C(=O)N[C@@H](CCC(=O)O)C(=O)N[C@@H](CCCN=C(N)N)C(=O)N[C@H](C(=O)N[C@@H](CCC(=O)O)C(=O)N[C@@H](Cc1c[nH]c2ccccc12)C(=O)N[C@@H](CC(C)C)C(=O)N[C@@H](CCCN=C(N)N)C(=O)N[C@@H](CCCCN)C(=O)N[C@@H](CCCCN)C(=O)N[C@@H](CC(C)C)C(=O)N[C@@H](CCC(N)=O)C(=O)N[C@@H](CC(=O)O)C(=O)N[C@H](C(=O)N[C@@H](Cc1cnc[nH]1)C(=O)N[C@@H](CC(N)=O)C(=O)N[C@@H](Cc1ccccc1)C(=O)O)C(C)C)C(C)C` [PTH 1-34, PTH 1-34 acetate], the Cmax in series [1] was roughly 0.15 ng/mL; in series [2] (setting [5]) it was 0.253 ng/mL; in series [2] (human, inhaled or intranasal, 90 ug, healthy female volunteers aged over 55 y, single 90 μg PTH 1-34 intranasal liquid spray with 7.5% w/v Solutol HS15 (Rexam SP270), plasma ELISA, mean of n = 7, not detectable in 5 of 7, read-out: Cmax), 0.005 ng/mL; in series [4] (setting [6]) it was 2 ng/mL; in series [4] (rat, subcutaneous injection, 80 μg/kg PTH 1-34, mean), 14.8 ng/mL. Moreover, the elimination half-life entry in series [1] is listed as “approximately 1 h”. In addition, the F rel in series [2] (female, plasma, inhaled or intranasal, 90 ug, human, 90 μg intranasal vs 20 μg subcutaneous, all seven subjects included in the calculation, read-out: bioavailability after intranasal dosing compared to subcutaneous injection of Forsteo) is 0.26%. For the same compound, in series [2] (setting [5]), the t½ is reported as 65 min. Moreover, the “bioavailability after intranasal dosing compared to subcutaneous injection of Forsteo” value in series [2] (human, 90 μg intranasal vs 20 μg subcutaneous, only the subjects with measurable plasma concentrations) was “approximately 1%”. For the same compound, the time to peak (Tmax) is 9 min in series [2] (human, inhaled or intranasal, 90 ug, healthy female volunteers aged over 55 y, single 90 μg PTH 1-34 intranasal liquid spray with 7.5% w/v Solutol HS15 (Rexam SP270), plasma ELISA, mean of n = 7, not detectable in 5 of 7); 13 min in series [4] (setting [6]); roughly 10 min in series [4] (conscious rat, intranasal solution containing Solutol HS15, 100 μg/kg). The “integrity of the spray dried PTH 1-34: purity by HPLC” value in series [3] is greater than 82.5%. Also, the relative bioavailability in series [4] (conscious rat, intranasal liquid formulation without enhancer (100 μg/kg) relative to subcutaneous injection (80 μg/kg)) is given as 8%; in series [4] (rat, intranasal liquid formulation containing Solutol HS15 (100 μg/kg) relative to subcutaneous injection (80 μg/kg)) it was 78%.
